Data on 20 molecules can be found in patent US9040528B2, “Chemical compounds 542” (AstraZeneca AB, priority 2008, dated 2015).

This assay addresses Escherichia coli DNA gyrase A/B tetramer (Escherichia coli (strain K12), UniProt P0AES4+P0AES6). The experiment in a line: DNA gyrase supercoiling activity fluorescence polarisation assay. Format: biochemical. To be noted: 5 nM enzyme, relaxed plasmid, 0.3 mM ATP, ambient temperature; read-out: E. coli DNA gyrase supercoiling IC50. Put shortly: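 Supercoiling reactions quenched with 40 nM 5′-BODIPY-FL triplex-forming oligonucleotide probe in pH 3.5 NaCl/sodium acetate buffer; after 60 min, fluorescence anisotropy read (ex 485/em 535 nm). IC50 by nonlinear regression, normalised to 0.8% DMSO (100% activity) and 5 μM ciprofloxacin (0% activity).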
As usually defined, the IC50 is the concentration that inhibits the measured activity by half. With `C[C@@H]1CN2c3c(cc4c(-n5cc(-c6cnccn6)cn5)noc4c3F)CC3(C(=O)NC(=O)NC3=O)[C@H]2[C@H](C)O1` (relative stereo) [Example 35, (2R,4S,4aS)-rel-11-fluoro-2,4-dimethyl-8-[4-(pyrazin-2-yl)-1H-pyrazol-1-yl]-1,2,4,4a-tetrahydro-2′H,6H-spiro[1,4-oxazino[4,3-a][1,2]oxazolo[4,5-g]quinoline-5,5′-pyrimidine]-2′,4′,6′(1′H,3′H)-trione], the IC50 came to 30000 nM.

On to `CCOC(=O)c1cnn(-c2noc3c(F)c4c(cc23)CC2(C(=O)NC(=O)NC2=O)[C@H]2[C@H](C)O[C@H](C)CN42)c1` (relative stereo) [Example 37, ethyl 1-[(2R,4S,4aS)-rel-11-fluoro-2,4-dimethyl-2′,4′,6′-trioxo-1,1′,2,3′,4,4′,4a,6′-octahydro-2′H,6H-spiro[1,4-oxazino[4,3-a][1,2]oxazolo[4,5-g]quinoline-5,5′-pyrimidin]-8-yl]-1H-pyrazole-4-carboxylate], for which the IC50 came to 8500 nM.

On to `C[C@@H]1CN2c3c(cc4c(-c5ccccn5)noc4c3Cl)CC3(C(=O)NC(=O)NC3=O)[C@H]2[C@H](C)O1` (relative stereo) [Example 38, (2R,4S,4aS)-rel-11-chloro-2,4-dimethyl-8-(pyridin-2-yl)-1,2,4,4a-tetrahydro-2′H,6H-spiro[1,4-oxazino[4,3-a][1,2]oxazolo[4,5-g]quinoline-5,5′-pyrimidine]-2′,4′,6′(1′H,3′H)-trione], for which the IC50 was found to be 800 nM.

For the molecule `Cc1ccc(-c2noc3c(Cl)c4c(cc23)CC2(C(=O)NC(=O)NC2=O)[C@H]2[C@H](C)O[C@H](C)CN42)cn1` (relative stereo) [Example 40, (2R,4S,4 aS)-rel-11-chloro-2,4-dimethyl-8-(6-methylpyridin-3-yl)-1,2,4,4a-tetrahydro-2′H,6H-spiro[1,4-oxazino[4,3-a][1,2]oxazolo[4,5-g]quinoline-5,5′-pyrimidine]-2′,4′,6′(1′H,3′H)-trione], the IC50 was determined as 1600 nM.

`C[C@@H]1CN2c3c(cc4c(-c5cncs5)noc4c3Cl)CC3(C(=O)NC(=O)NC3=O)[C@H]2[C@H](C)O1` (relative stereo) [Example 41, (2R,4S,4aS)-rel-11-chloro-2,4-dimethyl-8-(1,3-thiazol-5-yl)-1,2,4,4a-tetrahydro-2′H,6H-spiro[1,4-oxazino[4,3-a][1,2]oxazolo[4,5-g]quinoline-5,5′-pyrimidine]-2′,4′,6′(1′H,3′H)-trione]: the IC50 came out at 800 nM.

On to `C[C@@H]1CN2c3c(cc4c(-c5ccncn5)noc4c3Cl)CC3(C(=O)NC(=O)NC3=O)[C@H]2[C@H](C)O1` (relative stereo) [Example 43, (2R,4S,4aS)-rel-11-chloro-2,4-dimethyl-8-(pyrimidin-4-yl)-1,2,4,4a-tetrahydro-2′H,6H-spiro[1,4-oxazino[4,3-a][1,2]oxazolo[4,5-g]quinoline-5,5′-pyrimidine]-2′,4′,6′(1′H,3′H)-trione], for which the IC50 was 500 nM.

As to `C[C@@H]1CN2c3c(cc4c(-c5ccnnc5)noc4c3Cl)CC3(C(=O)NC(=O)NC3=O)[C@H]2[C@H](C)O1` (relative stereo) [Example 45, (2R,4S,4aS)-rel-11-chloro-2,4-dimethyl-8-(pyridazin-4-yl)-1,2,4,4a-tetrahydro-2′H,6H-spiro[1,4-oxazino[4,3-a][1,2]oxazolo[4,5-g]quinoline-5,5′-pyrimidine]-2′,4′,6′(1′H,3′H)-trione], the IC50 is 1600 nM.

As to `C[C@@H]1CN2c3c(cc4c(-c5ccncc5)noc4c3Cl)CC3(C(=O)NC(=O)NC3=O)[C@H]2[C@H](C)O1` (relative stereo) [Example 46, (2R,4S,4aS)-rel-11-chloro-2,4-dimethyl-8-(pyridin-4-yl)-1,2,4,4a-tetrahydro-2′H,6H-spiro[1,4-oxazino[4,3-a][1,2]oxazolo[4,5-g]quinoline-5,5′-pyrimidine]-2′,4′,6′(1′H,3′H)-trione], the IC50 was 1000 nM.

As to `C[C@@H]1CN2c3c(cc4c(-c5cccnc5)noc4c3Cl)CC3(C(=O)NC(=O)NC3=O)[C@H]2[C@H](C)O1` (relative stereo) [Example 47, (2R,4S,4aS)-rel-11-chloro-2,4-dimethyl-8-(pyridin-3-yl)-1,2,4,4a-tetrahydro-2′H,6H-spiro[1,4-oxazino[4,3-a][1,2]oxazolo[4,5-g]quinoline-5,5′-pyrimidine]-2′,4′,6′(1′H,3′H)-trione], the IC50 stood at 300 nM.

Regarding `C[C@@H]1CN2c3c(cc4c(-c5nccs5)noc4c3Cl)CC3(C(=O)NC(=O)NC3=O)[C@H]2[C@H](C)O1` (relative stereo) [Example 48, (2R,4S,4aS)-rel-11-chloro-2,4-dimethyl-8-(1,3-thiazol-2-yl)-1,2,4,4a-tetrahydro-2′H,6H-spiro[1,4-oxazino[4,3-a][1,2]oxazolo[4,5-g]quinoline-5,5′-pyrimidine]-2′,4′,6′(1′H,3′H)-trione], the IC50 stood at 1000 nM.

For `COCc1noc2c(Cl)c3c(cc12)CC1(C(=O)NC(=O)NC1=O)[C@H]1[C@H](C)O[C@H](C)CN31` (relative stereo) [Example 49, (2R,4S,4aS)-rel-11-chloro-8-(methoxymethyl)-2,4-dimethyl-1,2,4,4a-tetrahydro-2′H,6H-spiro[1,4-oxazino[4,3-a][1,2]oxazolo[4,5-g]quinoline-5,5′-pyrimidine]-2′,4′,6′(1′H,3′H)-trione], the IC50 was 1700 nM.

In the case of `CCCN(C)c1noc2c(F)c3c(cc12)CC1(C(=O)NC(=O)NC1=O)[C@H]1[C@H](C)O[C@H](C)CN31` (relative stereo) [Example 50, (2R,4S,4aS)-rel-11-fluoro-2,4-dimethyl-8-[methyl(propyl)amino]-1,2,4,4a-tetrahydro-2′H,6H-spiro[1,4-oxazino[4,3-a][1,2]oxazolo[4,5-g]quinoline-5,5′-pyrimidine]-2′,4′,6′(1′H,3′H)trione], the IC50 came out at 500 nM.

In the case of `COc1noc2c(F)c3c(cc12)CC1(C(=O)NC(=O)NC1=O)[C@H]1[C@H](C)O[C@H](C)CN31` (relative stereo) [Example 51, (2R,4S,4aS)-rel-11-fluoro-8-methoxy-2,4-dimethyl-1,2,4,4a-tetrahydro-2′H,6H-spiro[1,4-oxazino[4,3-a][1,2]oxazolo[4,5-g]quinoline-5,5′-pyrimidine]-2′,4′,6′(1′H,3′H)-trione], the IC50 is 1000 nM.

Turning to `C[C@@H]1CN2c3c(cc4c(OCc5ccccc5)noc4c3F)CC3(C(=O)NC(=O)NC3=O)[C@H]2[C@H](C)O1` (relative stereo) [Example 52, (2R,4S,4aS)-rel-8-(benzyloxy)-11-fluoro-2,4-dimethyl-1,2,4,4a-tetrahydro-2′H,6H-spiro[1,4-oxazino[4,3-a][1,2]oxazolo[4,5-g]quinoline-5,5′-pyrimidine]-2′,4′,6′(1′H,3′H)-trione], the IC50 came out at 2400 nM.

For `Cc1ncn(-c2noc3c(F)c4c(cc23)CC2(C(=O)NC(=O)NC2=O)[C@H]2[C@H](C)O[C@H](C)CN42)n1` (relative stereo) [Example 54, (2R,4S,4aS)-rel-11-fluoro-2,4-dimethyl-8-(3-methyl-1H-1,2,4-triazol-1-yl)-1,2,4,4a-tetrahydro-2′H,6H-spiro[1,4-oxazino[4,3-a][1,2]oxazolo[4,5-g]quinoline-5,5′-pyrimidine]-2′,4′,6′(1′H,3′H)-trione], the half-inhibitory concentration (IC50) amounted to 2000 nM.

Turning to `C[C@@H]1CN2c3c(cc4c(-n5cnc(C#N)n5)noc4c3F)CC3(C(=O)NC(=O)NC3=O)[C@H]2[C@H](C)O1` (relative stereo) [Example 55, 1-[(2R,4S,4aS)-rel-11-fluoro-2,4-dimethyl-2′,4′,6′-trioxo-1,1′,2,3′,4,4′,4a,6′-octahydro-2′H,6H-spiro[1,4-oxazino[4,3-a][1,2]oxazolo[4,5-g]quinoline-5,5′-pyrimidin]-8-yl]-1H-1,2,4-triazole-3-carbonitrile], the 50% inhibitory concentration (IC50) was 2600 nM.

Turning to `C[C@@H]1CN2c3c(cc4c(-n5ccnn5)noc4c3F)CC3(C(=O)NC(=O)NC3=O)[C@H]2[C@H](C)O1` (relative stereo) [Example 57, (2R,4S,4aS)-rel-11-fluoro-2,4-dimethyl-8-(1H-1,2,3-triazol-1-yl)-1,2,4,4a-tetrahydro-2′H,6H-spiro[1,4-oxazino[4,3-a][1,2]oxazolo[4,5-g]quinoline-5,5′-pyrimidine]-2′,4′,6′(1′H,3′H)-trione], the IC50 is 1500 nM.

For `C[C@@H]1CN2c3c(cc4c(-n5ccnc5)noc4c3F)CC3(C(=O)NC(=O)NC3=O)[C@H]2[C@H](C)O1` (relative stereo) [Example 58, (2R,4S,4aS)-rel-11-fluoro-8-(1H-imidazol-1-yl)-2,4-dimethyl-1,2,4,4a-tetrahydro-2′H,6H-spiro[1,4-oxazino[4,3-a][1,2]oxazolo[4,5-g]quinoline-5,5′-pyrimidine]-2′,4′,6′(1′H,3′H)-trione], the IC50 turned out to be 500 nM.

For the molecule `C[C@@H]1CN2c3c(cc4c(-n5cnc(C(F)(F)F)c5)noc4c3F)CC3(C(=O)NC(=O)NC3=O)[C@H]2[C@H](C)O1` (relative stereo) [Example 59, (2R,4S,4aS)-rel-11-fluoro-2,4-dimethyl-8-[4-(trifluoromethyl)-1H-imidazol-1-yl]-1,2,4,4a-tetrahydro-2′H,6H-spiro[1,4-oxazino[4,3-a][1,2]oxazolo[4,5-g]quinoline-5,5′-pyrimidine]-2′,4′,6′(1′H,3′H)-trione], the IC50 is 6600 nM.

For the molecule `Cc1cnn(-c2noc3c(F)c4c(cc23)CC2(C(=O)NC(=O)NC2=O)[C@H]2[C@H](C)O[C@H](C)CN42)c1` (relative stereo) [Example 60, (2R,4S,4aS)-rel-11-fluoro-2,4-dimethyl-8-(4-methyl-1H-pyrazol-1-yl)-1,2,4,4a-tetrahydro-2′H,6H-spiro[1,4-oxazino[4,3-a][1,2]oxazolo[4,5-g]quinoline-5,5′-pyrimidine]-2′,4′,6′(1′H,3′H)-trione], the IC50 is 1200 nM.
